The target of one experiment is Ba/F3 ERBB2 YVMA (Homo sapiens, UniProt P04626, DUP772-775, cells depend on it). Kind of experiment: Cell viability assay (CellTiter Glo), Ba/F3 cells engineered to express ERBB2 YVMA. The format is cell-based, mouse. As to conditions: Ba/F3 cells expressing human ERBB2 YVMA mutant, 72 hours, read-out: Ba/F3 ERBB2 YVMA, IC50. In a few lines:
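Ba/F3 cells (IL-3-independent via stable retroviral human ERBB2 YVMA) seeded 3000/well and given compound from about 10 μM to 0.51 nM in three-fold steps, DMSO ≤0.1%, 72 h at 37° C. Viability by CellTiter Glo luminescence, normalized to DMSO and media-only controls. Sigmoidal nonlinear fit.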
A general note: In ATP-based viability assays light output follows the ATP content of the culture.

The target of experiment [1] is T1, phosphorylated EGFR (pEGFR) (Homo sapiens, UniProt P00533).
T1 construct: performed to measure phosphorylated EGFR levels using A431 cells (10% FBS); endogenous in cells; host or cells: A431
T1 sequence (P00533 25-1210): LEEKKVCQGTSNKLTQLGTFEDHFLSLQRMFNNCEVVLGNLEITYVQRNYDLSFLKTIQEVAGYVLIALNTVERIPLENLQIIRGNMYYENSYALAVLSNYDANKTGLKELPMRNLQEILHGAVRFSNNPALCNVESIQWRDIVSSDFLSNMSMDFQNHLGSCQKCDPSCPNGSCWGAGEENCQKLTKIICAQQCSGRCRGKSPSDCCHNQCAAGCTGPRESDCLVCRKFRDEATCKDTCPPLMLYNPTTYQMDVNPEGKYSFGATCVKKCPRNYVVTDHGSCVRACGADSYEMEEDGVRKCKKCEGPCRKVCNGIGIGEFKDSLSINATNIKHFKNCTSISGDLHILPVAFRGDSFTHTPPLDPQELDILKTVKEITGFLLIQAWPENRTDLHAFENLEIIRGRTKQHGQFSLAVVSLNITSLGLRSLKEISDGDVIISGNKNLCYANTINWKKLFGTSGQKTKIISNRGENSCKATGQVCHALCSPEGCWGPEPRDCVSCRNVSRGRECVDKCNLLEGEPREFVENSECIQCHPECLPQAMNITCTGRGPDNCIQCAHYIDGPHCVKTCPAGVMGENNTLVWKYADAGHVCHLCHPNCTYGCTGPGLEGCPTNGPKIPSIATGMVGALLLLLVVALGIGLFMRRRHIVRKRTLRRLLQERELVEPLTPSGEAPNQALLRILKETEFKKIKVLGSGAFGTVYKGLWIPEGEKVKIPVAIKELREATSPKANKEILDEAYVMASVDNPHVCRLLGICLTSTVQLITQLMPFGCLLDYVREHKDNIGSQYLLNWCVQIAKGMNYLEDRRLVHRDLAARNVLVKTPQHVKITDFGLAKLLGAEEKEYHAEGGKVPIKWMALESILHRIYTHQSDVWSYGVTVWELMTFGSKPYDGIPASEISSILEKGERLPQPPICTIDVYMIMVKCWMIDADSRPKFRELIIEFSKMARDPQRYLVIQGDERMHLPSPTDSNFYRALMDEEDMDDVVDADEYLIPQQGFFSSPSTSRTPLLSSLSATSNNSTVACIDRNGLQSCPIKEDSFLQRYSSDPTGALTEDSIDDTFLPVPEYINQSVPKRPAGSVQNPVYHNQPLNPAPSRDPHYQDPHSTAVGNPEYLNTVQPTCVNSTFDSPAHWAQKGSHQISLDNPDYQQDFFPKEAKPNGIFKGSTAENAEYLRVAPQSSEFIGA
Nature of the experiment: Detection of phosphorylated EGFR (pEGFR) by AlphaLISA in EGF-stimulated A431 cells. The format is cell-based. As to conditions: A431 cells (10% FBS), 4 hours incubation, EGF 30 ng/mL for 10 minutes. In a few lines:
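pEGFR was quantified by AlphaLISA in lysates of A431 cells (10% FBS) given a 10 min pulse of EGF at 30 ng/mL after 4 h compound exposure at 37 °C. IC50 came from a four-parameter fit of % inhibition between DMSO and staurosporine controls.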
A general note: In Alpha technology, singlet oxygen from a donor bead excites a nearby acceptor bead.

Experiment [2] has as its target T2, phosphorylated ERBB2 (pERBB2) (Homo sapiens, UniProt P04626).
T2 construct: endogenous in cells; host or cells: BT-474
Nature of the experiment: Detection of phosphorylated ERBB2 (pERBB2) by ELISA in BT-474 cells. It is filed as cell-based. The conditions noted are these: four hour incubation. In a few lines:
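BT-474 cells were treated with compounds (fourfold dilutions, 10 μM to 0.01 nM final) for 4 h at 37 °C, then lysed. pERBB2 in lysates was quantified by ELISA with an HRP anti-phosphotyrosine detection antibody and TMB read at 450 nm; % relative activity was normalized to no-cell and 0.1% DMSO controls.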
For orientation: An ELISA detects its analyte on a solid surface through an enzyme-linked reagent.

T2 sequence (P04626 23-1255): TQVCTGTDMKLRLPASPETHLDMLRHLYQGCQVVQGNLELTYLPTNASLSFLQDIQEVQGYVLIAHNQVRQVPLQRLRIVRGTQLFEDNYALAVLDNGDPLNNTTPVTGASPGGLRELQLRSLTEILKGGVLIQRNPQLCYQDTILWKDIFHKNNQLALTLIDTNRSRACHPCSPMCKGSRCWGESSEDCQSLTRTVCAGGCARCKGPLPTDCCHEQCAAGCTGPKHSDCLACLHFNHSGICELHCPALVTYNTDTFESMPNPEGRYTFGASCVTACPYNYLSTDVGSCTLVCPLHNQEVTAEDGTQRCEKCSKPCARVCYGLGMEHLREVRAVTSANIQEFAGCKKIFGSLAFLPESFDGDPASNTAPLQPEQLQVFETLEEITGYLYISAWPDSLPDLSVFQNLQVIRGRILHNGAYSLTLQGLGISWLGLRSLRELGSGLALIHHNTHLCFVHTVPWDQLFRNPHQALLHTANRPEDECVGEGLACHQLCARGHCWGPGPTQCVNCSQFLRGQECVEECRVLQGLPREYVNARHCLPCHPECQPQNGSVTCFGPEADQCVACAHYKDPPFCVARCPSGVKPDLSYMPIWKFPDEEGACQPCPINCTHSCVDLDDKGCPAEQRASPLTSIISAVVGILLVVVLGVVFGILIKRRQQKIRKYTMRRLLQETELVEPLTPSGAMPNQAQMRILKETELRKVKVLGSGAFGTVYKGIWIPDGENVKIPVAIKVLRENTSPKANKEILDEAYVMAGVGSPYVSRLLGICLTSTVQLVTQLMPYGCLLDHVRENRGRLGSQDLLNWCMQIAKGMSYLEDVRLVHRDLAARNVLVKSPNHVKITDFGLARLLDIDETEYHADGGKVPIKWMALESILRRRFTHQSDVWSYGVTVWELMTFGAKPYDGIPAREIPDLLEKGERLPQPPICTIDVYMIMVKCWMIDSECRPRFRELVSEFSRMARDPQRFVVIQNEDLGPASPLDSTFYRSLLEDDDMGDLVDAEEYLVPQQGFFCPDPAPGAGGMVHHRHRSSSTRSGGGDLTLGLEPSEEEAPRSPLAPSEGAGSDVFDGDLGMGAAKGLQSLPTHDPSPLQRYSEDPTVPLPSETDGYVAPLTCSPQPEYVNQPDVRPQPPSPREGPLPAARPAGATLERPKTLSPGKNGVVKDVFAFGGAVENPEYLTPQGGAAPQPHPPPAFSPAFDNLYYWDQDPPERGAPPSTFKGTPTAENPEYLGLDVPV
Ba/F3 ERBB2 YVMA, sequence (P04626 with tags, fused parts or gaps DUP772-775): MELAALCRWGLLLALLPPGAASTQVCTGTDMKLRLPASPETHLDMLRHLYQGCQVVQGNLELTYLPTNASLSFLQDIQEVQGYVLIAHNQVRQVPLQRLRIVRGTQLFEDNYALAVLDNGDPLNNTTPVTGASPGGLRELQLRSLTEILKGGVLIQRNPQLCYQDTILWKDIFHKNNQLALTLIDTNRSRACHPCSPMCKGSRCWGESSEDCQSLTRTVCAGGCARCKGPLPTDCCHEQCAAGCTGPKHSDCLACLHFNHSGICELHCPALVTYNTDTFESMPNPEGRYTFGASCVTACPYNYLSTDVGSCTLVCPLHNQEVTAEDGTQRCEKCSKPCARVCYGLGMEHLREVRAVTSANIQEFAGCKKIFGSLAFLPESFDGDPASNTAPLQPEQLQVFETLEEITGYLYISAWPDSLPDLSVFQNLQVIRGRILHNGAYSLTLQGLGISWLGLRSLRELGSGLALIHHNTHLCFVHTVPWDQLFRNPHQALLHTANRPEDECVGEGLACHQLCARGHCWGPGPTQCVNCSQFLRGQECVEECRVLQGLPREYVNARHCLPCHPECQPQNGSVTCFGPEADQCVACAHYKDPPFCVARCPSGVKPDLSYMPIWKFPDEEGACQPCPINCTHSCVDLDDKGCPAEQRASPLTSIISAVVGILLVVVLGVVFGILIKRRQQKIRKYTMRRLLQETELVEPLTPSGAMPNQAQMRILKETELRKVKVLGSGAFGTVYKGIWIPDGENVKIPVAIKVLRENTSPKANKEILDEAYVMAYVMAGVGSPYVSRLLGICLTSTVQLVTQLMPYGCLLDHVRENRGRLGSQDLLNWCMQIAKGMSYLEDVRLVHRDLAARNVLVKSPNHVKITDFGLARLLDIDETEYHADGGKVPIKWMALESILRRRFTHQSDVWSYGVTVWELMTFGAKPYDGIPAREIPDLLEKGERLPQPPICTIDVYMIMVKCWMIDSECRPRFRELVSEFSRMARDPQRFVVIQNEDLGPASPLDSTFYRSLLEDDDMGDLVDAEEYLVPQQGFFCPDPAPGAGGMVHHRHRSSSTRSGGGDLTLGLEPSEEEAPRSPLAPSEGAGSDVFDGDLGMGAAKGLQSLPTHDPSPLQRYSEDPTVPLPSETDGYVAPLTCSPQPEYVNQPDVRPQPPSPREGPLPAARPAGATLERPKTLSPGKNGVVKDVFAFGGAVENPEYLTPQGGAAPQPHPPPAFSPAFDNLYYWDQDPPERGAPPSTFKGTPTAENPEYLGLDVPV

As a reminder, the IC50 is the concentration at which inhibition is half-maximal. Lower therefore signals greater potency in that assay. For `CN(C)C/C=C/C(=O)N1CCN2C[C@@H]1COc1c2ccc2ncnc(Nc3ccc(Oc4ccn5ncnc5c4)c(F)c3)c12` [Compound 76, (E)-1-((3R)-13-((4-([1,2,4]triazolo[1,5-a]pyridin-7-yloxy)-3-fluorophenyl)amino)-2,3,5,6-tetrahydro-4H-3,7-methano[1,4,7]oxadiazonino[2,3-f]quinazolin-4-yl)-4-(dimethylamino)but-2-en-1-one], the GI50 at Ba/F3 ERBB2 YVMA turned out to be 5.86 nM. The IC50 in experiment [1] is 381 nM; in experiment [2], 5.66 nM.
Take `CN(C)C/C=C/C(=O)N1CCN2C[C@@H]1COc1c2ccc2ncnc(Nc3ccc(Oc4ccn5ncnc5c4)cc3)c12` [Compound 77, (E)-1-((3R)-13-((4-([1,2,4]triazolo[1,5-a]pyridin-7-yloxy)phenyl)amino)-2,3,5,6-tetrahydro-4H-3,7-methano[1,4,7]oxadiazonino[2,3-f]quinazolin-4-yl)-4-(dimethylamino)but-2-en-1-one]: at Ba/F3 ERBB2 YVMA, the GI50 was 14.4 nM. Besides, the results for the IC50 in experiment [1] and in experiment [2] were 460 nM and 6.51 nM, respectively.
For `CN(C)C/C=C/C(=O)N1CCN2C[C@@H]1COc1c2ccc2ncnc(Nc3ccc(Oc4ccn5ncnc5c4)cc3F)c12` [Compound 78, (E)-1-((3R)-13-((4-([1,2,4]triazolo[1,5-a]pyridin-7-yloxy)-2-fluorophenyl)amino)-2,3,5,6-tetrahydro-4H-3,7-methano[1,4,7]oxadiazonino[2,3-f]quinazolin-4-yl)-4-(dimethylamino)but-2-en-1-one], at Ba/F3 ERBB2 YVMA, the GI50 amounted to 10.9 nM. For the same compound, the IC50 in experiment [1] was 341 nM; in experiment [2], 8.87 nM.
Taken in the same sequence, the figures for `Cc1cc(Nc2ncnc3ccc4c(c23)OC[C@H]2CN4CCN2C(=O)/C=C/CN(C)C)ccc1Oc1ccc2c(c1)nnn2C` [Compound 79, (E)-4-(dimethylamino)-1-((3R)-13-((3-methyl-4-((1-methyl-1H-benzo[d][1,2,3]triazol-5-yl)oxy)phenyl)amino)-2,3,5,6-tetrahydro-4H-3,7-methano[1,4,7]oxadiazonino[2,3-f]quinazolin-4-yl)but-2-en-1-one] were 6.04 nM, 84.4 nM and 14.2 nM.
As to `Cc1cc(Nc2ncnc3ccc4c(c23)OC[C@H]2CN4CCN2C(=O)/C=C/C2CN(C)C2)ccc1Oc1ccn2ncnc2c1` [Compound 80, (E)-1-((3R)-13-((4-([1,2,4]triazolo[1,5-a]pyridin-7-yloxy)-3-methylphenyl)amino)-2,3,5,6-tetrahydro-4H-3,7-methano[1,4,7]oxadiazonino[2,3-f]quinazolin-4-yl)-3-(1-methylazetidin-3-yl)prop-2-en-1-one], the GI50 at Ba/F3 ERBB2 YVMA stood at 77.2 nM. For the same compound, the IC50 in experiment [1] stood at 701 nM; in experiment [2], 22.8 nM.
Taken in the same sequence, the figures for `Cc1cc(Nc2ncnc3ccc4c(c23)OC[C@H]2CN4CCN2C(=O)/C=C/C2(F)CN(C)C2)ccc1Oc1ccn2ncnc2c1` [Compound 81, (E)-1-((3R)-13-((4-([1,2,4]triazolo[1,5-a]pyridin-7-yloxy)-3-methylphenyl)amino)-2,3,5,6-tetrahydro-4H-3,7-methano[1,4,7]oxadiazonino[2,3-f]quinazolin-4-yl)-3-(3-fluoro-1-methylazetidin-3-yl)prop-2-en-1-one] were 8.51 nM, 785 nM and 17.2 nM.
For `Cc1cc(Nc2ncnc3cnc4c(c23)OC[C@H]2CN4CCN2C(=O)/C=C/CN(C)C)ccc1Oc1ccn2ncnc2c1` [Compound 82, (E)-1-((3R)-13-((4-([1,2,4]triazolo[1,5-a]pyridin-7-yloxy)-3-methylphenyl)amino)-2,3,5,6-tetrahydro-4H-3,7-methanopyrimido[5′,4′:4,5]pyrido[3,2-b][1,4,7]oxadiazonin-4-yl)-4-(dimethylamino)but-2-en-1-one], in that order: 6.9 nM, 199 nM and 7.9 nM.
For `Cc1cc(Nc2ncnc3cnc4c(c23)OC[C@H]2CN4CCN2C(=O)/C=C/CN(C)C)c(F)cc1Oc1ccn2ncnc2c1` [Compound 83, (E)-1-((3R)-13-((4-([1,2,4]triazolo[1,5-a]pyridin-7-yloxy)-2-fluoro-5-methylphenyl)amino)-2,3,5,6-tetrahydro-4H-3,7-methanopyrimido[5′,4′:4,5]pyrido[3,2-b][1,4,7]oxadiazonin-4-yl)-4-(dimethylamino)but-2-en-1-one], in that order: 14 nM, 344 nM and 17.3 nM.
For `Cc1ccc(Oc2ccc(Nc3ncnc4ccc5c(c34)OC[C@H]3CN5CCN3C(=O)/C=C/CN(C)C)cc2C)cn1` [Compound 84, (E)-4-(dimethylamino)-1-((3R)-13-((3-methyl-4-((6-methylpyridin-3-yl)oxy)phenyl)amino)-2,3,5,6-tetrahydro-4H-3,7-methano[1,4,7]oxadiazonino[2,3-f]quinazolin-4-yl)but-2-en-1-one], the GI50 at Ba/F3 ERBB2 YVMA amounted to 2.95 nM. The values for the half-maximal inhibitory concentration (IC50) in experiment [1] and in experiment [2] were 60.1 nM and 14.6 nM, respectively.
Taken in the same sequence, the figures for `Cc1cc(Nc2ncnc3ccc4c(c23)OC[C@H]2COCCN42)ccc1Oc1ccn2ncnc2c1` [Compound 85, (R)—N-(4-([1,2,4]triazolo[1,5-a]pyridin-7-yloxy)-3-methylphenyl)-6a,7,9,10-tetrahydro-6H-[1,4]oxazino[4′,3′:4,5][1,4]oxazino[2,3-f]quinazolin-4-amine] were 181 nM, over 10000 nM and 17.2 nM.
Taken in the same sequence, the figures for `Cc1cc(Nc2ncnc3ccc4c(c23)OC[C@H]2CN4CCN2C(=O)/C=C/[C@@H](C)N(C)C)ccc1Oc1ccn2ncnc2c1` [Compound 88, (4R,E)-1-((3R)-13-((4-([1,2,4]triazolo[1,5-a]pyridin-7-yloxy)-3-methylphenyl)amino)-2,3,5,6-tetrahydro-4H-3,7-methano[1,4,7]oxadiazonino[2,3-f]quinazolin-4-yl)-4-(dimethylamino)pent-2-en-1-one formic acid] were 60.3 nM, 2820 nM and 44.3 nM.
As for `Cc1cc(Nc2ncnc3ccc4c(c23)OC[C@H]2CN4CCN2C(=O)/C=C/[C@H](C)N(C)C)ccc1Oc1ccn2ncnc2c1` [Compound 89, (4S,E)-1-((3R)-13-((4-([1,2,4]triazolo[1,5-a]pyridin-7-yloxy)-3-methylphenyl)amino)-2,3,5,6-tetrahydro-4H-3,7-methano[1,4,7]oxadiazonino[2,3-f]quinazolin-4-yl)-4-(dimethylamino)pent-2-en-1-one], the GI50 on Ba/F3 ERBB2 YVMA came out at 264 nM. Further, the IC50 was over 10000 nM in experiment [1] and 172 nM in experiment [2].
Taken in the same sequence, the figures for `Cc1cc(Nc2ncnc3ccc4c(c23)OC[C@H]2CN4CCN2C(=O)/C=C/[C@@H](C)N(C)C)c(F)cc1Oc1ccn2ncnc2c1` [Compound 90, (4R,E)-1-((3R)-13-((4-([1,2,4]triazolo[1,5-a]pyridin-7-yloxy)-2-fluoro-5-methylphenyl)amino)-2,3,5,6-tetrahydro-4H-3,7-methano[1,4,7]oxadiazonino[2,3-f]quinazolin-4-yl)-4-(dimethylamino)pent-2-en-1-one] were 28.7 nM, over 10000 nM and 50.4 nM.
In the case of `Cc1cc(Nc2ncnc3ccc4c(c23)OC[C@H]2CN4CCN2C(=O)/C=C/[C@H](C)N(C)C)c(F)cc1Oc1ccn2ncnc2c1` [Compound 91, (4S,E)-1-((3R)-13-((4-([1,2,4]triazolo[1,5-a]pyridin-7-yloxy)-2-fluoro-5-methylphenyl)amino)-2,3,5,6-tetrahydro-4H-3,7-methano[1,4,7]oxadiazonino[2,3-f]quinazolin-4-yl)-4-(dimethylamino)pent-2-en-1-one triformate], at Ba/F3 ERBB2 YVMA, the GI50 amounted to 164 nM. Further, the IC50 in experiment [1] is over 10000 nM; in experiment [2] it was 147 nM.
Taken in the same sequence, the figures for `Cc1cc(Nc2ncnc3ccc4c(c23)OC[C@@H]2CN(C(=O)/C=C/CN(C)C)CCN42)c(F)cc1Oc1ccn2ncnc2c1` [Compound 92, (S,E)-1-(4-((4-([1,2,4]triazolo[1,5-a]pyridin-7-yloxy)-2-fluoro-5-methylphenyl)amino)-6a,7,9,10-tetrahydropyrazino[1′,2′:4,5][1,4]oxazino[2,3-f]quinazolin-8(6H)-yl)-4-(dimethylamino)but-2-en-1-one] were 18 nM, 2160 nM and 20.8 nM.
With `Cc1c(Oc2ccn3ncnc3c2)ccc(Nc2ncnc3ccc4c(c23)OC[C@@H]2CN(C(=O)/C=C/CN(C)C)CCN42)c1F` [Compound 93, (S,E)-1-(4-((4-([1,2,4]triazolo[1,5-a]pyridin-7-yloxy)-2-fluoro-3-methylphenyl)amino)-6a,7,9,10-tetrahydropyrazino[1′,2′:4,5][1,4]oxazino[2,3-f]quinazolin-8(6H)-yl)-4-(dimethylamino)but-2-en-1-one], on Ba/F3 ERBB2 YVMA, the GI50 stood at 7.75 nM. The IC50 in experiment [1] was found to be 308 nM; in experiment [2], 18.1 nM.

The values are drawn from patent US20260078135A1, “POLYCYCLIC QUINAZOLINES FOR INHIBITION OF ERBB2” (Enliven Inc., priority 2022, published 2026).
